Assay results: patent publication US9212130B2, “Heterocyclic derivative and pharmaceutical composition comprising the same” (SHIONOGI & CO., LTD., priority 2010, dated 2015)

Key:
[1] = Bioavailability (BA) test; type: in vivo; conditions: plasma; Mice or SD rats; oral 0.3 to 30 mg/kg vs intravenous 0.5 to 10 mg/kg; from AUCs
Experimental: Materials and Methods for Experiment of BA
• (1) Animals: Mice or SD rats were used • (2) Breeding conditions: Mice or SD rats were allowed to freely take solid food and sterilized tap water. • (3) Dose and grouping: orally or intravenously administered at a predetermined dose; grouping was as follows (Dose depends on the compound) Oral administration: 0.3 to 30 mg/kg (n=2 to 3) Intravenous administration: 0.5 to 10 mg/kg (n=2 to 3) • (4) Preparation of dosing solution: for oral administration, in a solution or a suspension state; for intravenous administration, in a solubilized state • (5) Administration method: in oral administration, forcedly administer into ventriculus with oral probe; in intravenous administration, administer from caudal vein with a needle-equipped syringe • (6) Evaluation items: blood was collected over time, and the plasma concentration of drug was measured by LC/MS/MS • (7) Statistical analysis: regarding the transition of the plasma concentration of the present compound, the area under the plasma concentration-time curve (AUC) was calculated by non-linear least squares program WinNonlin (Registered trade name), and the bioavailability (BA) was calculated from the AUCs of the oral administration group and intravenous administration group

CYP3A4 = CYP3A4 (Homo sapiens (Human), UniProt P08684); experiment: CYP inhibition test, terfenedine hydroxylation; type: in vitro ADME; conditions: pooled human hepatic microsome; 1 μmol/L terfenedine; given as 'five kinds'
Sequence of CYP3A4 (P08684 whole entry): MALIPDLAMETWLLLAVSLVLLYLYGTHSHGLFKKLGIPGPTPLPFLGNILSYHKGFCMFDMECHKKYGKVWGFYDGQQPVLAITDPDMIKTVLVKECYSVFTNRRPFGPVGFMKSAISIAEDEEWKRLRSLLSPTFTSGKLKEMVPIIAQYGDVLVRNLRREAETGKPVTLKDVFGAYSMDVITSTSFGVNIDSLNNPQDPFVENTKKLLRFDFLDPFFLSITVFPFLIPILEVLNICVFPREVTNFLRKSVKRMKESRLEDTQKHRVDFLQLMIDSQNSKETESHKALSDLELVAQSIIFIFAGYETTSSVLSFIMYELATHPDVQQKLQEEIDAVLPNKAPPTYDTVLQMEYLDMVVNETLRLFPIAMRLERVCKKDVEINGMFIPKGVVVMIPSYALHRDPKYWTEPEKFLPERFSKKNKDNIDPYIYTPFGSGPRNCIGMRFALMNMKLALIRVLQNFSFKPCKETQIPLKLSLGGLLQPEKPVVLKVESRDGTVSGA
Experimental: (§1) Using commercially available pooled human hepatic microsome, and employing, as markers, 7-ethoxyresorufin O-deethylation (CYP1A2), tolbutamide methyl-hydroxylation (CYP2C9), mephenyloin 4′-hydroxylation (CYP2C19), dextromethorphan O-demethylation (CYP2D6), and terfenedine hydroxylation as typical substrate metabolism reactions of human main five ([…] enzyme forms (CYP1A2, 2C9, 2C19, 2D6, 3A4), an inhibitory degree of each metabolite production amount by a test compound was assessed.
(§2) The reaction conditions were as follows: substrate, 0.5 μmol/L ethoxyresorufin (CYP1A2), 100 μmol/L tolbutamide (CYP2C9), 50 μmol/L S-mephenitoin (CYP2C19), 5 μmol/L dextromethorphan (CYP2D6), 1 μmol/L terfenedine (CYP3A4); reaction time, 15 minutes; reaction temperature, 37° C.; enzyme, pooled human hepatic microsome 0.2 mg protein/mL; test drug concentration, 1.0. 5.0, 10, 20 μmol/L (four points).
(§3) Each five kinds of substrates, human hepatic microsome, or a test drug in 50 mmol/L Hepes buffer as a reaction solution was added to a 96-well plate at the composition as described above. NADPH, as a cofactor was added to initiate metabolism reactions as markers and, after the incubation at 37° C. for 15 minutes, a methanol/acetonitrile=1/1 (v/v) solution was added to stop the reaction. After the centrifugation at 3000 rpm for 15 minutes, resorufin (CYP1A2 metabolite) in the supernatant was quantified by a fluorescent multilabel counter and tributamide hydroxide (CYP2CP metabolite), mephenyloin 4′ hydroxide (CYP2C19 metabolite), […], and terfenadine alcohol (CYP3A4 metabolite) were quantified by LC/MS/MS.
(§4) Addition of only DMSO being a solvent dissolving a drug to a reaction system was adopted as a control (100%), remaining activity (%) was calculated at each concentration of a test drug added as the solution and IC50 was calculated by reverse presumption by a logistic model using a concentration and an inhibition rate.

CYP2C9 = CYP2C9 (Homo sapiens (Human), UniProt P11712); experiment: CYP inhibition test, tolbutamide methyl-hydroxylation; type: in vitro ADME; conditions: pooled human hepatic microsome; 100 μmol/L tolbutamide; given as 'five kinds'
Sequence of CYP2C9 (P11712 whole entry): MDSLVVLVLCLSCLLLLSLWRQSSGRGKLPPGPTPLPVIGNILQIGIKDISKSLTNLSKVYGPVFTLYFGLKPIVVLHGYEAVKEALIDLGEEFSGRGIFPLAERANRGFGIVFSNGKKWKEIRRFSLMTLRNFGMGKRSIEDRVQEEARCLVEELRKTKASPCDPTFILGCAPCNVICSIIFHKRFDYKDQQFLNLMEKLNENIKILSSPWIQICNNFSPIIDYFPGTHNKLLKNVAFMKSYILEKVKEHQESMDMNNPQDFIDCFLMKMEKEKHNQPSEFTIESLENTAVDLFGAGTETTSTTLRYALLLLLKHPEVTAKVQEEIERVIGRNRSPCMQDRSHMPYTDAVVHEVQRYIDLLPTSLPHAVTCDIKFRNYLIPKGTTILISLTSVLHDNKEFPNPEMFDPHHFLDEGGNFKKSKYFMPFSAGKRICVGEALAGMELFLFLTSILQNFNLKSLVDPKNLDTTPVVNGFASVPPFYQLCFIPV
Experimental: as §1, §2, §3, §4

Solubility test = type: physicochemical; conditions: artificial intestinal juice (phosphate buffer) with 1% DMSO, 25 °C, other biorelevant, kinetic from dmso stock, artificial intestinal juice in pH 8.8, 25 degrees Celsius for 16 hours
Experimental: The solubility of a compound was determined under a condition in which 1% DMSO was added. 10 mmol/L compound solution was prepared using DMSO, and then 6 μL of the compound solution was added to 594 μL of artificial intestinal juice in […] (to 250 mL of 0.2 mol/L potassium dihydrogen phosphate reagent solution was added 118 mL of 0.2 mol/L NaOH reagent solution and water to provide a final volume of 1000 mL). After standing at 25 degrees Celsius for 16 hours, the mixed solution was filtrated with suction. The filtrate was diluted twice with methanol/water (1/1) and then a concentration in the filtration was measured with HPLC or LC/MS/MS by the absolute calibration method.

`CC(C)Oc1ccc(Nc2cc(=O)n(C[C@H](C)C(=O)O)c(=O)n2Cc2ccc(Cl)cc2)cc1Cl` [I-100] gave a bioavailability [1] of 29.2%, an IC50 (CYP3A4) of over 20 µM and an IC50 (CYP2C9) of over 20 µM. The solubility at 16 h (Solubility test) was over 50 µM.
